Measured values as given in article PMC10709135 (iScience, 2023).

Biological target: T1, fl-KcsA (full-length KcsA) (Streptomyces lividans, UniProt P0A334)
T1 sequence (P0A334 1-160): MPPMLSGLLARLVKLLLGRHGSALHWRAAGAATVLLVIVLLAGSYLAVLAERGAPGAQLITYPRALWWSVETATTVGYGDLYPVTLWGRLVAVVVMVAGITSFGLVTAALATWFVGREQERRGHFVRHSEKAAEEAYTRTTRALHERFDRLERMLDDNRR
Assay: SPR, KcsA immobilised on SAM chip
Format: binding
Settings: specific blocker; type of constant not given

CCCC[N+](CCCC)(CCCC)CCCC [TBA]
binding affinity: The binding affinity of TBA to KcsA deduced from the present SPR study
